Results taken from US20240360194A1, “New Peptides as Potent and Selective GIP Receptor Agonists” (Sanofi, priority 2021, published 2024).
Each block holds one molecule with its values, some of them ahead of it. Numbered stars: 1 amine (or outer) side, 2 acyl side, 3 side chain; on linkers, the order of the positions; unused ones are H or OH. Square brackets hold non-standard residues; d marks the D form. Side chains are listed from the residue outwards. Peptide text beside a SMILES is read from it. * marks the point of attachment. C18 diacid = O=C(O)CCCCCCCCCCCCCCCCC(=O)*; γGlu = O=C(O)[C@H](CCC(=O)[*:2])N[*:1]; AEEA = NCCOCCOCC(=O)O; Aib = CC(C)(N)C(=O)O

Assays:
[1] = molecular target: T1, human GIP receptor (hGIPR) (Homo sapiens, UniProt P48546); test: In vitro cellular cAMP assay for GIP receptor efficacy (HEK-293 cell line over-expressing receptor); type: cell-based
T1 sequence (P48546 22-466): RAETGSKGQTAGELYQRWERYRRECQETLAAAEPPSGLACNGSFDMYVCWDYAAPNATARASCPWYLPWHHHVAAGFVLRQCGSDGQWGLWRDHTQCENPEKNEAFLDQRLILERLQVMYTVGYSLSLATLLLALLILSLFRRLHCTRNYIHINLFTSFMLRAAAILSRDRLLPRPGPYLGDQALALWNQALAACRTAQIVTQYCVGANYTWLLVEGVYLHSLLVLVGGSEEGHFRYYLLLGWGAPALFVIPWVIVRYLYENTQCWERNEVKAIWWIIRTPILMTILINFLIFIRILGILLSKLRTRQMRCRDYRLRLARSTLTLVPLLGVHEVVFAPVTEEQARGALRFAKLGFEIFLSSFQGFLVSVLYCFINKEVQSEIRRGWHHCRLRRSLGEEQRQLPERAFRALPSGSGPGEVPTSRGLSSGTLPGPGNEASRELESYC

[2] = Pharmacokinetic evaluation in mice; type: in vivo, female C57Bl/6 mice; conditions: in vivo
Protocol: Compounds were administered in a suitable buffer system, e.g. PBS buffer solution at pH7.4 or DPBS solution at concentrations of 0.05, 0.1, 0.5 or 1 mg/ml depending on dose, species and administration volume. Female C57Bl/6 mice were dosed 0.25 mg/kg, 0.5 mg/kg or 1 mg/kg intravenously (i.v.) or subcutaneously (s.c.). The mice were sacrificed, and blood samples were collected after 0.08, 0.25, 0.5, 1, 2, 4, 8, 24, 32, and 48 h post i.v. application and 0.25, 0.5, 1, 2, 4, 8, 24, 32, and 48 h post s.c. application, respectively. Plasma samples were analysed after protein precipitation via liquid chromatography mass spectrometry (LC/MS). PK parameters and half-life were calculated using Phoenix-WinNonlin 8.1 using a non-compartmental model and linear trapezoidal interpolation calculation. Pharmacokinetic profiles were determined as described in Methods.

[3] = EC50 hGIPR 0.1% BSA, HEK-293, 0.1% BSA
[4] = female, C57Bl/6, mouse, iv, 0.25 mg/kg
[5] = female, C57Bl/6, mouse, sc, 0.5 mg/kg

Compound: CC[C@H](C)[C@H](NC(=O)[C@H](CCCNC(=N)N)NC(=O)[C@H](CC(=O)O)NC(=O)[C@H](CCCCNC(=O)COCCOCCNC(=O)COCCOCCNC(=O)CC[C@H](NC(=O)CCCCCCCCCCCCCCCCC(=O)O)C(=O)O)NC(=O)C(C)(C)NC(=O)[C@@H](NC(=O)[C@H](CO)NC(=O)[C@H](CC(C)C)NC(=O)[C@H](CC(=O)O)NC(=O)[C@H](CO)NC(=O)[C@@H](NC(=O)[C@H](Cc1ccccc1)NC(=O)[C@@H](NC(=O)CNC(=O)[C@H](CCC(=O)O)NC(=O)C(C)(C)NC(=O)[C@@H](N)Cc1ccc(O)cc1)[C@@H](C)O)[C@@H](C)CC)[C@@H](C)CC)C(=O)N[C@@H](Cc1c[nH]cn1)C(=O)N[C@@H](CCC(N)=O)C(=O)NC(C)(C)C(=O)N[C@@H](CCC(=O)O)C(=O)N[C@@H](Cc1ccccc1)C(=O)N[C@H](C(=O)N[C@@H](CCC(=O)O)C(=O)N[C@@H](Cc1c[nH]c2ccccc12)C(=O)N[C@@H](CC(C)C)C(=O)N[C@@H](CC(C)C)C(=O)N[C@@H](C)C(=O)N[C@@H](CCC(N)=O)C(=O)N[C@@H](CCC(=O)O)C(=O)NCC(N)=O)[C@@H](C)CC [SEQ ID NO: 12, H2N-Y-Aib-E-G-T-F-I-S-D-L-S-I-Aib-K[{AEEA}2-gGlu-C18OH]-D-R-I-H-Q-Aib-E-F-I-E-W-L-L-A-Q-E-G-NH2]
EC50 [1, 3]: 26.7 pM
EC50 ([1]; EC50 hGIPR 0.1% HSA, HEK-293, 0.1% HSA): 1.1 pM

Compound: CC[C@H](C)[C@H](NC(=O)[C@H](CCCNC(=N)N)NC(=O)[C@H](CC(=O)O)NC(=O)[C@H](CCCCNC(=O)COCCOCCNC(=O)COCCOCCNC(=O)CC[C@H](NC(=O)CCCCCCCCCCCCCCCCC(=O)O)C(=O)O)NC(=O)C(C)(C)NC(=O)[C@@H](NC(=O)[C@H](CO)NC(=O)[C@H](CC(C)C)NC(=O)[C@H](CC(=O)O)NC(=O)[C@H](CO)NC(=O)[C@@H](NC(=O)[C@@](C)(CC)NC(=O)[C@@H](NC(=O)CNC(=O)[C@H](CCC(=O)O)NC(=O)C(C)(C)NC(=O)[C@@H](N)Cc1ccc(O)cc1)[C@@H](C)O)[C@@H](C)CC)[C@@H](C)CC)C(=O)N[C@@H](Cc1c[nH]cn1)C(=O)N[C@@H](CCC(N)=O)C(=O)NC(C)(C)C(=O)N[C@@H](CCC(=O)O)C(=O)N[C@@H](Cc1ccccc1)C(=O)N[C@H](C(=O)N[C@@H](CCC(=O)O)C(=O)N[C@@H](Cc1c[nH]c2ccccc12)C(=O)N[C@@H](CC(C)C)C(=O)N[C@@H](CC(C)C)C(=O)N[C@@H](C)C(=O)N[C@@H](CCC(N)=O)C(=O)N[C@@H](CCCNC(=N)N)C(=O)NCC(N)=O)[C@@H](C)CC [SEQ ID NO: 16, H2N-Y-Aib-E-G-T-Iva-I-S-D-L-S-I-Aib-K[{AEEA}2-gGlu-C18OH]-D-R-I-H-Q-Aib-E-F-I-E-W-L-L-A-Q-R-G-NH2]
EC50 [1, 3]: 24.3 pM
AUC(0-t) [2, 4]: 27300 ng·h/mL
Cmax [2, 4]: 5040 ng/mL
clearance [2, 4]: 0.151 mL/min/kg
half-life [2, 4]: 7.33 h
AUC(0-t) [2, 5]: 82500 ng·h/mL
Cmax [2, 5]: 4590 ng/mL
half-life [2, 5]: 5.69 h
F ([2]; mouse, sc, 0.5 mg/kg): 150%

Compound: CC[C@H](C)[C@H](NC(=O)[C@H](CCC(=O)O)NC(=O)[C@H](CCC(=O)O)NC(=O)[C@H](CCCCNC(=O)COCCOCCNC(=O)COCCOCCNC(=O)CC[C@H](NC(=O)CCCCCCCCCCCCCCCCC(=O)O)C(=O)O)NC(=O)C(C)(C)NC(=O)[C@@H](NC(=O)[C@H](CO)NC(=O)[C@H](CC(C)C)NC(=O)[C@H](CC(=O)O)NC(=O)[C@H](CO)NC(=O)[C@@H](NC(=O)[C@H](Cc1ccccc1)NC(=O)[C@@H](NC(=O)CNC(=O)[C@H](CCC(=O)O)NC(=O)C(C)(C)NC(=O)[C@@H](N)Cc1ccc(O)cc1)[C@@H](C)O)[C@@H](C)CC)[C@@H](C)CC)C(=O)N[C@@H](Cc1c[nH]cn1)C(=O)N[C@@H](CCC(N)=O)C(=O)NC(C)(C)C(=O)N[C@@H](CCC(=O)O)C(=O)N[C@@H](Cc1ccccc1)C(=O)N[C@H](C(=O)N[C@@H](CCC(=O)O)C(=O)N[C@@H](Cc1c[nH]c2ccccc12)C(=O)N[C@@H](CC(C)C)C(=O)N[C@@H](CC(C)C)C(=O)N[C@@H](C)C(=O)N[C@@H](CCC(N)=O)C(=O)NCC(=O)N1CCC[C@H]1C(=O)N[C@@H](CO)C(=O)N[C@@H](CO)C(=O)NCC(=O)N[C@@H](C)C(=O)N1CCC[C@H]1C(=O)N1CCC[C@H]1C(=O)N1CCC[C@H]1C(=O)N[C@@H](CO)C(N)=O)[C@@H](C)CC [SEQ ID NO: 19, H2N-Y-Aib-E-G-T-F-I-S-D-L-S-I-Aib-K[{AEEA}2-gGlu-C18OH]-E-E-I-H-Q-Aib-E-F-I-E-W-L-L-A-Q-G-P-S-S-G-A-P-P-P-S-NH2] (H-Y[Aib]EGTFISDLSI[Aib]K([AEEA-AEEA-γGlu-C18 diacid])EEIHQ[Aib]EFIEWLLAQGPSSGAPPPS-NH2)
AUC(0-t) [2, 4]: 20800 ng·h/mL
Cmax [2, 4]: 3750 ng/mL
clearance [2, 4]: 0.197 mL/min/kg
half-life [2, 4]: 8.68 h
AUC(0-t) [2, 5]: 41100 ng·h/mL
Cmax [2, 5]: 2420 ng/mL
F [2, 5]: 101%
half-life [2, 5]: 10.3 h

Second part, the molecule after the results:

EC50 [1, 3]: 20.8 pM
Compound: CC[C@H](C)[C@H](NC(=O)[C@H](Cc1ccccc1)NC(=O)[C@H](CCC(=O)O)NC(=O)[C@H](CCC(=O)O)NC(=O)[C@H](CCC(N)=O)NC(=O)[C@H](Cc1c[nH]cn1)NC(=O)[C@@H](NC(=O)[C@H](CCCNC(=N)N)NC(=O)[C@H](CC(=O)O)NC(=O)[C@H](CCCCNC(=O)COCCOCCNC(=O)COCCOCCNC(=O)CC[C@H](NC(=O)CCCCCCCCCCCCCCCCC(=O)O)C(=O)O)NC(=O)C(C)(C)NC(=O)[C@@H](NC(=O)[C@H](CO)NC(=O)[C@H](CC(C)C)NC(=O)[C@H](CC(=O)O)NC(=O)[C@H](CO)NC(=O)[C@@H](NC(=O)[C@H](Cc1ccccc1)NC(=O)[C@@H](NC(=O)CNC(=O)[C@H](CCC(=O)O)NC(=O)C(C)(C)NC(=O)[C@@H](N)Cc1ccc(O)cc1)[C@@H](C)O)[C@@H](C)CC)[C@@H](C)CC)[C@@H](C)CC)C(=O)N[C@@H](CCC(=O)O)C(=O)N[C@@H](Cc1c[nH]c2ccccc12)C(=O)N[C@@H](CC(C)C)C(=O)N[C@@H](CC(C)C)C(=O)N[C@@H](C)C(=O)N[C@@H](CCC(N)=O)C(=O)N[C@@H](CCCNC(=N)N)C(=O)NCC(N)=O [SEQ ID NO: 4, H2N-Y-Aib-E-G-T-F-I-S-D-L-S-I-Aib-K[{AEEA}2-gGlu-C18OH]-D-R-I-H-Q-E-E-F-I-E-W-L-L-A-Q-R-G-NH2]

EC50 [1, 3]: 21.6 pM
Compound: CC[C@H](C)[C@H](NC(=O)[C@H](Cc1ccccc1)NC(=O)[C@H](CCC(=O)O)NC(=O)[C@H](CCC(=O)O)NC(=O)[C@H](CCC(N)=O)NC(=O)[C@H](Cc1c[nH]cn1)NC(=O)[C@@H](NC(=O)[C@H](CCCNC(=N)N)NC(=O)[C@H](CC(=O)O)NC(=O)[C@H](CCCCNC(=O)COCCOCCNC(=O)COCCOCCNC(=O)CC[C@H](NC(=O)CCCCCCCCCCCCCCCCC(=O)O)C(=O)O)NC(=O)C(C)(C)NC(=O)[C@@H](NC(=O)[C@H](CO)NC(=O)[C@H](CC(C)C)NC(=O)[C@H](CC(=O)O)NC(=O)[C@H](CO)NC(=O)[C@@H](NC(=O)[C@@](C)(CC)NC(=O)[C@@H](NC(=O)CNC(=O)[C@H](CCC(=O)O)NC(=O)C(C)(C)NC(=O)[C@@H](N)Cc1ccc(O)cc1)[C@@H](C)O)[C@@H](C)CC)[C@@H](C)CC)[C@@H](C)CC)C(=O)N[C@@H](CCC(=O)O)C(=O)N[C@@H](Cc1c[nH]c2ccccc12)C(=O)N[C@@H](CC(C)C)C(=O)N[C@@H](CC(C)C)C(=O)N[C@@H](C)C(=O)N[C@@H](CCC(N)=O)C(=O)N[C@@H](CCCNC(=N)N)C(=O)NCC(N)=O [SEQ ID NO: 15, H2N-Y-Aib-E-G-T-Iva-I-S-D-L-S-I-Aib-K[{AEEA}2-gGlu-C18OH]-D-R-I-H-Q-E-E-F-I-E-W-L-L-A-Q-R-G-NH2]
